Patent US20100305120A1, “COMPOUNDS FOR TREATING MUSCULAR DYSTROPHY” (BIOMARIN IGA LIMITED, priority 2008, published 2010)

Tested on: Utrophin A promoter linked to a luciferase reporter gene
Assay: Luciferase reporter assay (murine H2K cells), H2K/mdx/Utro A reporter cell line
Type: cell-based
Conditions: 48 h; test compound concentration 10 μM; mdx mouse H2K Utrophin A reporter cells; read-out: Activity (luciferase level relative to control)
Description: Luciferase Reporter Assay (Murine H2K Cells)
The cell line used for the screen is an immortalized mdx mouse H2K cell line that has been stably transfected with a plasmid containing ≈5 kb fragment of the Utrophin A promoter including the first untranslated exon linked to a luciferase reporter gene.
Under conditions of low temperature and interferon containing media, the cells remain as myoblasts. These are plated into 96 well plates and cultured in the presence of compound for three days. The level of luciferase is then determined by cell lysis and reading of the light output from the expressed luciferase gene utilising a plate luminometer.
Luciferase Assay for 96 Well Plates
The H2K/mdx/Utro A reporter cell line cells were plated out into 96 well plates (Falcon 353296, white opaque) at a density of approximately 5000 cells/well in 190 μl normal growth medium. The plates were then incubated at 33° C. in the presence of 10% CO2 for 24 hrs.
Compounds were dosed by adding 10 μl of diluted compound to each well giving a final concentration of 10 μM (where a different final concentration was required, the amount of compound solution added was amended accordingly). The plates were then incubated for a further 48 hrs. Cells were then lysed in situ following the manufacture's protocols (Promega Steady-Glo Luciferase Assay System(E2520). Then counted for 10 seconds using a plate luminometer (Victor1420).
Compounds for screening were stored at −20° C. as 10 mM stocks in 100% DMSO until required.
Biological activity as assessed using the luciferase reporter assay in murine H2K cells, and the results are shown in Table 1, which also lists the concentration of the test compound solution in μM.

| Compound | activity at 10 µM [%] |
| --- | --- |
| CON(C)S(=O)(=O)c1ccc(Cn2nc(C(=O)Nc3nc4ccccc4s3)c3ccccc32)cc1 [Compound 1, N-(benzo[d]thiazol-2-yl)-1-(4-(N-methoxy-N-methylsulfamoyl)benzyl)-1H-indazole-3-carboxamide] | < 200 |
| COc1ccc(OC)c(NC(=O)Nc2nn(Cc3ccc(COc4ccc5c(c4)OCO5)cc3)c3ccc(C(F)(F)F)cc23)c1 [Compound 2, 1-(1-(4-((benzo[d][1,3]dioxol-5-yloxy)methyl)benzyl)-5-(trifluoromethyl)-1H-indazol-3-yl)-3-(2,5-dimethoxyphenyl)urea] | < 200 |
| CS(=O)(=O)c1ccc(Cn2nc(C(=O)Nc3nccs3)c3ccccc32)cc1 [Compound 3, 1-(4-(methylsulfonyl)benzyl)-N-(thiazol-2-yl)-1H-indazole-3-carboxamide] | < 200 |
| CS(=O)(=O)c1ccc(Cn2nc(C(=O)Nc3ccc4c(c3)OCO4)c3ccccc32)cc1 [Compound 4, N-(benzo[d][1,3]dioxol-5-yl)-1-(4-(methylsulfonyl)benzyl)-1H-indazole-3-carboxamide] | 301 to 400 |
| COc1ccc(NC(=O)c2nn(CCCOc3ccccc3)c3ccccc23)cc1 [Compound 5, N-(4-methoxyphenyl)-1-(3-phenoxypropyl)-1H-indazole-3-carboxamide] | < 200 |
| C#CCN(C)S(=O)(=O)c1ccc(Cn2nc(C(=O)Nc3ccc(N4CCCCC4)cc3)c3ccccc32)cc1 [Compound 6, 1-(4-(N-methyl-N-(prop-2-ynyl)sulfamoyl)benzyl)-N-(4-(piperidin-1-yl)phenyl)-1H-indazole-3-carboxamide] | 301 to 400 |
| CCN(CC)S(=O)(=O)c1ccc(Cn2nc(C(=O)Nc3nc4ccccc4s3)c3ccccc32)cc1 [Compound 7, N-(benzo[d]thiazol-2-yl)-1-(4-(N,N-diethylsulfamoyl)benzyl)-1H-indazole-3-carboxamide] | < 200 |
| COc1ccc2c(c1)c(C(=O)Nc1ccc(N3CCCCC3)cc1)nn2Cc1ccc(S(=O)(=O)N(C)OC)cc1 [Compound 8, 5-methoxy-1-(4-(N-methoxy-N-methylsulfamoyl)benzyl)-N-(4-(piperidin-1-yl)phenyl)-1H-indazole-3-carboxamide] | < 200 |
| O=C(Nc1cccc(F)c1)Nc1nn(Cc2ccc(COc3ccc4c(c3)OCO4)cc2)c2ccc(C(F)(F)F)cc12 [Compound 9, 1-(1-(4-((benzo[d][1,3]dioxol-5-yloxy)methyl)benzyl)-5-(trifluoromethyl)-1H-indazol-3-yl)-3-(3-fluorophenyl)urea] | < 200 |
| CCN(CC)S(=O)(=O)c1ccc(Cn2nc(C(=O)Nc3ccc(N4CCCCC4)cc3)c3ccccc32)cc1 [Compound 10, 1-(4-(N,N-diethylsulfamoyl)benzyl)-N-(4-(piperidin-1-yl)phenyl)-1H-indazole-3-carboxamide] | 201 to 300 |
| COC(=O)c1ccc(NC(=O)Nc2nn(Cc3ccc(COc4cccc(OC)c4)cc3)c3ccccc23)cc1 [Compound 11, methyl 4-(3-(1-(4-((3-methoxyphenoxy)methyl)benzyl)-1H-indazol-3-yl)ureido)benzoate] | < 200 |
| COc1cccc(OC)c1NC(=O)Nc1nn(Cc2ccc(C(F)(F)F)cc2)c2ccccc12 [Compound 12, 1-(2,6-dimethoxyphenyl)-3-(1-(4-(trifluoromethyl)benzyl)-1H-indazol-3-yl)urea] | < 200 |
| Cc1ccc2c(c1)c(NC(=O)Nc1ccccc1C(C)C)nn2Cc1cc2c(cc1Cl)OCO2 [Compound 13, 1-(1-((6-chlorobenzo[d][1,3]dioxol-5-yl)methyl)-5-methyl-1H-indazol-3-yl)-3-(2-isopropylphenyl)urea] | < 200 |
| O=C(Nc1ccc(N2CCCCC2)cc1)c1nn(CCCOc2ccccc2)c2ccccc12 [Compound 14, 1-(3-phenoxypropyl)-N-(4-(piperidin-1-yl)phenyl)-1H-indazole-3-carboxamide] | 301 to 400 |
| Cc1cccc(NC(=O)Nc2nn(Cc3ccc(C(F)(F)F)cc3)c3ccccc23)c1 [Compound 15, 1-m-tolyl-3-(1-(4-(trifluoromethyl)benzyl)-1H-indazol-3-yl)urea] | < 200 |
| O=C(Nc1nccs1)c1nn(CCCOc2ccccc2)c2ccccc12 [Compound 16, 1-(3-phenoxypropyl)-N-(thiazol-2-yl)-1H-indazole-3-carboxamide] | > 401 |
| O=C(Nc1nc2ccccc2s1)c1nn(Cc2ccc(C(=O)N3CCOCC3)cc2)c2ccccc12 [Compound 17, N-(benzo[d]thiazol-2-yl)-1-(4-(morpholine-4-carbonyl)benzyl)-1H-indazole-3-carboxamide] | 201 to 300 |

| Compound | activity at 10 µM [%] |
| --- | --- |
| CS(=O)(=O)c1ccc(Cn2nc(C(=O)Nc3ccc(N4CCCCC4)cc3)c3ccccc32)cc1 [Compound 18, 1-(4-(methylsulfonyl)benzyl)-N-(4-(piperidin-1-yl)phenyl)-1H-indazole-3-carboxamide] | 201 to 300 |
| CC(C)c1ccc(NC(=O)c2nn(Cc3ccc(C(=O)N4CCOCC4)cc3)c3ccccc23)cc1 [Compound 19, N-(4-isopropylphenyl)-1-(4-(morpholine-4-carbonyl)benzyl)-1H-indazole-3-carboxamide] | > 401 |
| CN(Cc1ccccc1)C(=O)c1ccc(Cn2nc(C(=O)Nc3ccc(C(F)(F)F)cc3)c3ccccc32)cc1 [Compound 20, 1-(4-(benzyl(methyl)carbamoyl)benzyl)-N-(4-(trifluoromethyl)phenyl)-1H-indazole-3-carboxamide] | < 200 |
| C#CCN(C)S(=O)(=O)c1ccc(Cn2nc(C(=O)Nc3ccc4c(c3)OCO4)c3ccccc32)cc1 [Compound 21, N-(benzo[d][1,3]dioxol-5-yl)-1-(4-(N-methyl-N-(prop-2-ynyl)sulfamoyl)benzyl)-1H-indazole-3-carboxamide] | > 401 |
| CC(C)c1ccc(NC(=O)c2nn(Cc3ccc(C(=O)N(C)Cc4ccccc4)cc3)c3ccccc23)cc1 [Compound 22, 1-(4-(benzyl(methyl)carbamoyl)benzyl)-N-(4-isopropylphenyl)-1H-indazole-3-carboxamide] | < 200 |
| CS(=O)(=O)c1ccc(Cn2nc(C(=O)Nc3ccc(OC(F)(F)F)cc3)c3ccccc32)cc1 [Compound 23, 1-(4-(methylsulfonyl)benzyl)-N-(4-(trifluoromethoxy)phenyl)-1H-indazole-3-carboxamide] | < 200 |
| CN(c1ccccc1)S(=O)(=O)c1ccc(Cn2nc(C(=O)NOCc3ccccc3)c3ccccc32)cc1 [Compound 24, N-(benzyloxy)-1-(4-(N-methyl-N-phenylsulfamoyl)benzyl)-1H-indazole-3-carboxamide] | < 200 |
| O=C(Nc1ccc2c(c1)OC(F)(F)O2)c1nn(Cc2ccc(C(=O)N3CCOCC3)cc2)c2ccccc12 [Compound 25, N-(2,2-difluorobenzo[d][1,3]dioxol-5-yl)-1-(4-(morpholine-4-carbonyl)benzyl)-1H-indazole-3-carboxamide] | > 401 |
| CC(C)c1ccc(NC(=O)c2nn(CCOc3ccccc3)c3ccccc23)cc1 [Compound 26, N-(4-isopropylphenyl)-1-(2-phenoxyethyl)-1H-indazole-3-carboxamide] | < 200 |
| CC(C)c1ccc(NC(=O)c2nn(Cc3ccc(-c4ccccc4)cc3)c3ccccc23)cc1 [Compound 27, 1-(biphenyl-4-ylmethyl)-N-(4-isopropylphenyl)-1H-indazole-3-carboxamide] | < 200 |
| COc1cccc(OCc2ccc(Cn3nc(NC(=O)NCc4ccccc4F)c4ccccc43)cc2)c1 [Compound 28, 1-(2-fluorobenzyl)-3-(1-(4-((3-methoxyphenoxy)methyl)benzyl)-1H-indazol-3-yl)urea] | 201 to 300 |
| O=C(Nc1ccccc1C(F)(F)F)Nc1nn(Cc2ccc(COc3ccc4c(c3)OCO4)cc2)c2ccc(C(F)(F)F)cc12 [Compound 29, 1-(1-(4-((benzo[d][1,3]dioxol-5-yloxy)methyl)benzyl)-5-(trifluoromethyl)-1H-indazol-3-yl)-3-(2-(trifluoromethyl)phenyl)urea] | < 200 |
| COc1cccc(OCc2ccc(Cn3nc(NC(=O)Nc4ccc5c(c4)CCC5)c4ccccc43)cc2)c1 [Compound 30, 1-(2,3-dihydro-1H-inden-5-yl)-3-(1-(4-((3-methoxyphenoxy)methyl)benzyl)-1H-indazol-3-yl)urea] | < 200 |
| COc1ccc(NC(=O)Nc2nn(Cc3ccc(COc4ccc5c(c4)OCO5)cc3)c3ccc(C(F)(F)F)cc23)c(OC)c1 [Compound 31, 1-(1-(4-((benzo[d][1,3]dioxol-5-yloxy)methyl)benzyl)-5-(trifluoromethyl)-1H-indazol-3-yl)-3-(2,4-dimethoxyphenyl)urea] | < 200 |
| Cc1cccc(CNC(=O)Nc2nn(Cc3cc4c(cc3Cl)OCO4)c3ccccc23)c1 [Compound 32, 1-(1-((6-chlorobenzo[d][1,3]dioxol-5-yl)methyl)-1H-indazol-3-yl)-3-(3-methylbenzyl)urea] | < 200 |
| O=C(Nc1nn(Cc2ccc(CN3C(=O)CCC3=O)cc2)c2ccccc12)c1cnc2ccccc2n1 [Compound 33, N-(1-(4-((2,5-dioxopyrrolidin-1-yl)methyl)benzyl)-1H-indazol-3-yl)quinoxaline-2-carboxamide] | < 200 |
